“And” between values parts separate entries of the source, which are not always exact repeats. Equal values may be shown once. Toxic doses and inconclusive results are not listed.

The test relates to CD2F1 mice, L1210 leukemia ip, survival T/C. Description: NCI In Vivo Anticancer Drug Screen. Data for tumor model L1210 Leukemia (intraperitoneal) in CD2F1 (CDF1) mice. The conditions noted are these: higher = longer survival. In outline: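 Mice carrying a transplanted tumor received test compound or vehicle alone. The value is the measurement in the treated group divided by that in the vehicle-treated control group.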

[1] abbreviates: endpoint: mean survival time, dose: 50.0 mg/kg/injection, schedule: Q01DX009 (ip), vehicle: saline.
[2] abbreviates: endpoint: mean survival time, dose: 100.0 mg/kg/injection, schedule: Q01DX001 (ip), vehicle: saline.
Setting [3] is: endpoint: mean survival time, dose: 200.0 mg/kg/injection, schedule: Q01DX001 (ip), vehicle: saline.
Where [4] appears, read: endpoint: mean survival time, dose: 200.0 mg/kg/injection, schedule: Q01DX009 (ip), vehicle: saline with Tween-80.
Setting [5] is: endpoint: mean survival time, dose: 400.0 mg/kg/injection, schedule: Q01DX009 (ip), vehicle: saline with Tween-80.
The mark [6] stands for this setting: endpoint: mean survival time, dose: 100.0 mg/kg/injection, schedule: Q01DX001 (ip), vehicle: saline with Tween-80.
The mark [7] stands for this setting: endpoint: mean survival time, dose: 200.0 mg/kg/injection, schedule: Q01DX001 (ip), vehicle: saline with Tween-80.
Where [8] appears, read: endpoint: mean survival time, dose: 400.0 mg/kg/injection, schedule: Q01DX001 (ip), vehicle: saline with Tween-80.
Where [9] appears, read: endpoint: mean survival time, dose: 100.0 mg/kg/injection, schedule: Q04DX002 (ip), vehicle: saline with Tween-80.
Setting [10] is: endpoint: mean survival time, dose: 200.0 mg/kg/injection, schedule: Q04DX002 (ip), vehicle: saline with Tween-80.
[11] abbreviates: endpoint: mean survival time, dose: 400.0 mg/kg/injection, schedule: Q04DX002 (ip), vehicle: saline with Tween-80.
Setting [12] is: endpoint: mean survival time, dose: 100.0 mg/kg/injection, schedule: Q04DX003 (ip), vehicle: saline with Tween-80.
Setting [13] is: endpoint: mean survival time, dose: 200.0 mg/kg/injection, schedule: Q04DX003 (ip), vehicle: saline with Tween-80.
The mark [14] stands for this setting: endpoint: mean survival time, dose: 400.0 mg/kg/injection, schedule: Q04DX003 (ip), vehicle: saline with Tween-80.
[15] abbreviates: endpoint: mean survival time, dose: 100.0 mg/kg/injection, schedule: Q01DX009 (ip), vehicle: saline with Tween-80.

Take `O=C(O)C(O)C(O)C1[O][Sb][O]C1CO` (configuration not stated): the T/C was 97 % of control (endpoint: mean survival time, dose: 50.0 mg/kg/injection, schedule: Q01DX001 (ip), vehicle: saline); 95 % of control under setting [1]; 91 % of control (endpoint: mean survival time, dose: 50.0 mg/kg/injection, schedule: Q04DX003 (ip), vehicle: saline); 93 % of control under setting [2]; 96 % of control (endpoint: mean survival time, dose: 100.0 mg/kg/injection, schedule: Q01DX009 (ip), vehicle: saline); 92 % of control (endpoint: mean survival time, dose: 100.0 mg/kg/injection, schedule: Q04DX003 (ip), vehicle: saline). Besides, the T/C is, setting by setting: under setting [3], 98 % of control; (endpoint: mean survival time, dose: 200.0 mg/kg/injection, schedule: Q01DX009 (ip), vehicle: saline) 96 % of control; (endpoint: mean survival time, dose: 200.0 mg/kg/injection, schedule: Q04DX003 (ip), vehicle: saline) 92 % of control.
Take `CCCCCCCCCCCCCCCCOc1ccc(C(C)=O)cc1`: the T/C was 89 % of control under setting [4] and 96 % of control under setting [5].
For `C#CCNC1=C(C)C(=O)C2=C(C1=O)[C@H](COC(N)=O)[C@]1(OC)[C@H]3[C@@H](CN21)N3C` (some centres not stated), the T/C (endpoint: mean survival time, dose: 3.0 mg/kg/injection, schedule: Q01DX001 (ip), vehicle: distilled water + Tween-80) is 97 % of control; the T/C (endpoint: mean survival time, dose: 6.0 mg/kg/injection, schedule: Q01DX001 (ip), vehicle: distilled water + Tween-80) is 95 % of control; the T/C (endpoint: mean survival time, dose: 12.0 mg/kg/injection, schedule: Q01DX001 (ip), vehicle: distilled water + Tween-80) is 101 % of control; the T/C (endpoint: mean survival time, dose: 24.0 mg/kg/injection, schedule: Q01DX001 (ip), vehicle: distilled water + Tween-80) is 110 % of control; the T/C (endpoint: mean survival time, dose: 48.0 mg/kg/injection, schedule: Q01DX001 (ip), vehicle: distilled water + Tween-80) was 118 % of control.
`S=c1sc2ccccc2n1CN1CCCCC1`: the T/C is 100 % of control under setting [6], 100 % of control under setting [7] and 108 % of control under setting [8].
Consider `N#C/C(=C\c1ccco1)c1ccc([N+](=O)[O-])cc1`, for which the T/C runs as follows: (endpoint: mean survival time, dose: 6.25 mg/kg/injection, schedule: Q04DX003 (ip), vehicle: saline with Tween-80) 102 % of control; (endpoint: mean survival time, dose: 12.5 mg/kg/injection, schedule: Q04DX003 (ip), vehicle: saline with Tween-80) 102 % of control; (endpoint: mean survival time, dose: 25.0 mg/kg/injection, schedule: Q04DX003 (ip), vehicle: saline with Tween-80) 100 % of control; (endpoint: mean survival time, dose: 100.0 mg/kg/injection, schedule: Q01DX001 (ip), vehicle: Klucel (hydroxypropylcellulose) (HPC)) 106 % of control; (endpoint: mean survival time, dose: 200.0 mg/kg/injection, schedule: Q01DX001 (ip), vehicle: Klucel (hydroxypropylcellulose) (HPC)) 95 % of control; (endpoint: mean survival time, dose: 400.0 mg/kg/injection, schedule: Q01DX001 (ip), vehicle: Klucel (hydroxypropylcellulose) (HPC)) 94 % of control.
In the case of `Cc1cn(C2CC3O[P@](=S)(Nc4ccccc4)OCC3O2)c(=O)[nH]c1=O` (some centres not stated), the T/C by setting is: (endpoint: median survival time, dose: 12.75 mg/kg/injection, schedule: Q01DX005 (ip), vehicle: saline with Tween-80) 100 % of control; (endpoint: median survival time, dose: 25.5 mg/kg/injection, schedule: Q01DX005 (ip), vehicle: saline with Tween-80) 100 % of control; (endpoint: median survival time, dose: 51.0 mg/kg/injection, schedule: Q01DX005 (ip), vehicle: saline with Tween-80) 100 % of control; (endpoint: median survival time, dose: 102.0 mg/kg/injection, schedule: Q01DX005 (ip), vehicle: saline with Tween-80) 93 % of control.
For the compound `O=c1[nH]cnc2c1ncn2C1OC(CO)C(O)C1O.[Ag+]` (configuration not stated), the T/C reads like this: (endpoint: mean survival time, dose: 12.5 mg/kg/injection, schedule: Q01DX005 (ip), vehicle: other) 92 % of control; (endpoint: mean survival time, dose: 25.0 mg/kg/injection, schedule: Q01DX005 (ip), vehicle: other) 98 % of control; (endpoint: mean survival time, dose: 50.0 mg/kg/injection, schedule: Q01DX005 (ip), vehicle: other) 87 % of control.
For `COc1ccc([N+](=O)[O-])cc1NC(=O)Nc1ccccc1Cl`, the T/C is 86 % of control under setting [9], 93 % of control under setting [10] and 104 % of control under setting [11].
In the case of `CCCCCCCCCCSS(=O)(=O)O`, the T/C runs as follows: (endpoint: mean survival time, dose: 25.0 mg/kg/injection, schedule: Q01DX001 (ip), vehicle: other) 105 % of control; (endpoint: mean survival time, dose: 50.0 mg/kg/injection, schedule: Q01DX001 (ip), vehicle: other) 96 % of control; (endpoint: mean survival time, dose: 100.0 mg/kg/injection, schedule: Q01DX001 (ip), vehicle: other) 96 % of control.
With `O=P(O)(c1cc(Cl)cc(Cl)c1)c1cc(Cl)cc(Cl)c1`, the T/C runs as follows: (endpoint: mean survival time, dose: 18.8 mg/kg/injection, schedule: Q04DX003 (ip), vehicle: saline) 100 % of control; (endpoint: mean survival time, dose: 37.5 mg/kg/injection, schedule: Q04DX003 (ip), vehicle: saline) 100 % of control; (endpoint: mean survival time, dose: 75.0 mg/kg/injection, schedule: Q04DX003 (ip), vehicle: saline) 102 % of control.
In the case of `Cc1ccccc1C[P+](c1ccccc1)(c1ccccc1)c1ccccc1`, the T/C is 88 % of control (endpoint: mean survival time, dose: 1.0 mg/kg/injection, schedule: Q01DX009 (ip), vehicle: saline); 96 % of control (endpoint: mean survival time, dose: 2.0 mg/kg/injection, schedule: Q01DX009 (ip), vehicle: saline); 92 % of control (endpoint: mean survival time, dose: 4.0 mg/kg/injection, schedule: Q01DX009 (ip), vehicle: saline); 108 % of control (endpoint: mean survival time, dose: 8.0 mg/kg/injection, schedule: Q01DX009 (ip), vehicle: saline).
Turning to `CC(=O)CC(=O)c1ccc(C(=O)CC(C)=O)cc1.[Fe]`, the T/C runs as follows: under setting [12], 96 % of control; under setting [13], 89 % of control; under setting [14], 104 % of control.
With `CCOc1cccc(Cc2cn(Cc3cccc(NC(=O)c4ccc(S(=O)(=O)F)cc4)c3)c(=O)[nH]c2=O)c1`, the T/C by setting is: (endpoint: mean survival time, dose: 75.0 mg/kg/injection, schedule: Q01DX001 (ip), vehicle: saline with Tween-80) 100 % of control; (endpoint: mean survival time, dose: 150.0 mg/kg/injection, schedule: Q01DX001 (ip), vehicle: saline with Tween-80) 97 % of control.
With `COC(=O)c1ccccc1Nc1c2ccc(Cl)cc2nc2c1c(C)nn2C`, the T/C runs as follows: under setting [15], 96 % of control; under setting [12], 101 % of control; under setting [4], 100 % of control; under setting [13], 95 % of control; under setting [5], 97 % of control; under setting [14], 106 % of control.
Turning to `CCCCCCCCCCCCCCCCCC(=O)Nc1ccn(C2OC(CO)C(O)C2O)c(=O)n1` (configuration not stated), the T/C is 229 % of control and 252 % of control (endpoint: mean survival time, dose: 25.0 mg/kg/injection, schedule: Q04DX002 (ip), vehicle: saline with Tween-80); 271 % of control and 325 % of control (endpoint: mean survival time, dose: 50.0 mg/kg/injection, schedule: Q04DX002 (ip), vehicle: saline with Tween-80); 365 % of control (endpoint: mean survival time, dose: 75.0 mg/kg/injection, schedule: Q04DX002 (ip), vehicle: saline with Tween-80); 273 % of control and 313 % of control under setting [9]; 122 % of control under setting [10]; 110 % of control under setting [11].
As to `c1ccc(C2OCC3(CO2)COC(c2ccccc2)OC3)cc1` (configuration not stated), the T/C runs as follows: under setting [15], 88 % of control; under setting [12], 94 % of control; under setting [4], 91 % of control; under setting [13], 92 % of control; under setting [14], 92 % of control.
`CCCCCCCCCCCCCCCCSSCCCCCCCCCCCCCCCC`: the T/C is 88 % of control under setting [12], 88 % of control under setting [13] and 92 % of control under setting [14].
As to `Cc1cccc(N2CCN(CCO)CC2)c1`, the T/C reads like this: (endpoint: mean survival time, dose: 12.5 mg/kg/injection, schedule: Q01DX009 (ip), vehicle: saline) 109 % of control; (endpoint: mean survival time, dose: 25.0 mg/kg/injection, schedule: Q01DX009 (ip), vehicle: saline) 102 % of control; under setting [1], 100 % of control.
Take `O=CC(O)C(O)C(OC1OC(CO)C(OC2OC(CO)C(O)C(O)C2O)C(O)C1O)C(O)CO` (configuration not stated): the T/C under setting [15] was 98 % of control, the T/C under setting [4] was 95 % of control and the T/C under setting [5] is 95 % of control.
`CCC(C)CCCOC(=O)c1c(Cl)c(Cl)c(Cl)c(Cl)c1C(=O)O` (configuration not stated): the T/C is 106 % of control under setting [2]; 112 % of control under setting [3]; 102 % of control (endpoint: mean survival time, dose: 400.0 mg/kg/injection, schedule: Q01DX001 (ip), vehicle: saline).
`CC1=CC(O)(c2ccccc2)C(C)=CC1=O` (configuration not stated): the T/C by setting is: under setting [6], 97 % of control; under setting [7], 97 % of control; under setting [8], 93 % of control.

The record behind these values is PubChem BioAssay AID256 (DTP/NCI, 2004).
